Literature values in patent US6610702B2, “Ammonium salts of inositol hexaphosphate, and uses thereof” (GMP Oxycell, Inc., priority 2000, dated 2003).
Read-outs that look alike come from different tables or passages of the source.

How the values were obtained:
stripped hemoglobin = stripped hemoglobin (Homo sapiens, UniProt P68871); settings: pH 7.4, cited from earlier work
human RBCs = settings: IHP encapsulated in human RBCs by continuous-flow electroporation; cited from earlier work
[1] = target: allosteric site on hemoglobin (Homo sapiens, UniProt P68871); settings: displaces hemoglobin-bound 2,3-DPG; cited from earlier work
Sequence of allosteric site on hemoglobin (P68871 2-147 limits assumed): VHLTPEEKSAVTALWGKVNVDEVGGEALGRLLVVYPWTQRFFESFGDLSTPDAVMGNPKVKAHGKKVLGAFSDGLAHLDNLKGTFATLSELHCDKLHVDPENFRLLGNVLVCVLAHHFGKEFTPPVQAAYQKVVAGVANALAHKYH
Sequence of allosteric site on hemoglobin (P69905 2-142 partner limits assumed): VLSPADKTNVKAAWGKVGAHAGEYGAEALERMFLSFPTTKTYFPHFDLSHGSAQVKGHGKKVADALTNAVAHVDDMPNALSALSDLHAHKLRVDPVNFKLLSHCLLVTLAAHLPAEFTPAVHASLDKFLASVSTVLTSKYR

[2] = buffer 100 mM sodium phosphate, pH 7.0; cited from earlier work

Sequence of stripped hemoglobin (P68871 2-147 limits assumed): as the sequence (P68871 2-147 limits assumed) above
Sequence of stripped hemoglobin (P69905 2-142 partner limits assumed): as the sequence (P69905 2-142 partner limits assumed) above

Row | Compound | half-saturation pressure P(O2) (½) of stripped hemoglobin (stripped hemoglobin; 25 C., stripped hemoglobin alone 4.3) | half-saturation pressure P(O2) (½) of stripped hemoglobin (stripped hemoglobin; 37 C., stripped hemoglobin alone 9.3) | P50 of modified RBCs (human RBCs) | affinity for the allosteric site relative to 2,3-DPG [1] | Octanol/buffer partition coefficient [2]
1 | O=P(O)(O)O[C@H]1[C@H](OP(=O)(O)O)[C@@H](OP(=O)(O)O)[C@H](OP(=O)(O)O)[C@@H](OP(=O)(O)O)[C@H]1OP(=O)(O)O [IHP, inositol hexaphosphate] | 48.4 mm Hg | 96.4 mm Hg | approximately 50 torr | one-thousand times greater affinity | –
2 | Cc1cn([C@H]2CC(O)[C@@H](CO)O2)c(=O)[nH]c1=O (some centres unmarked) | – | – | – | – | 0.064
